{"source": "patent US20060216726A1", "about": "“Method for optimizing thiopurine efficacy and toxicity using mass spectrometry” (Prometheus Laboratories Inc., priority 2004, published 2006)", "origin": "cited, not measured here", "details": "patients with inflammatory bowel disease, azathioprine"}
{"substance": "6-thioguanine nucleotide [6-TGN]", "values": [{"measurement": "Therapeutic threshold associated with efficacy", "value": "> 235", "unit": "pmol/8×10^8 cells"}]}
